Results: article PMC6173696, “Structural properties of a haemophore facilitate targeted elimination of the pathogen Porphyromonas gingivalis” (Nature Communications, 2018)

How the values were obtained:
Format in all cases: binding
HusA W130N = target: T1, HusA W130N (Porphyromonas gingivalis, UniProt Q7MSY3, W130N); assay: Tryptophan fluorescence quenching assay, HusA mutant W130N; settings: haemin
T1 sequence (Q7MSY3 24-218 W130N): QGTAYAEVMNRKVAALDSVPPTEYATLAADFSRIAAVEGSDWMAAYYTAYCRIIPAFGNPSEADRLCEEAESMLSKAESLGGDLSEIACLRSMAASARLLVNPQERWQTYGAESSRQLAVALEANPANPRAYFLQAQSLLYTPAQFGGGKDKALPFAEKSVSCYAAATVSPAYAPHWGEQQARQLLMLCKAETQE

HusA Y133A = target: T2, HusA Y133A (Porphyromonas gingivalis, UniProt Q7MSY3, Y133A); assay: Tryptophan fluorescence quenching assay, HusA mutant Y133A; settings: haemin
T2 sequence (Q7MSY3 24-218 Y133A): T1 sequence (Q7MSY3 24-218 W130N)

HusA Y164A = target: T3, HusA Y164A (Porphyromonas gingivalis, UniProt Q7MSY3, Y164A); assay: Tryptophan fluorescence quenching assay, HusA mutant Y164A; settings: haemin
T3 sequence (Q7MSY3 24-218 Y164A): T1 sequence (Q7MSY3 24-218 W130N)
Description: (§1) The quenching of intrinsic tryptophan fluorescence of HusA upon porphyrin additions was measured using a Carey Eclipse Fluorescence Spectrophotometer (Agilent) set to a photo multiplier effect (PME) of 850. A 5-mm path length quartz cuvette was used and all spectra were acquired at room temperature. Excitation was set to 295 nm and emission was measured from 300 nm to 500 nm using excitation/emission slit widths of 5 nm. Binding assays were performed at a protein concentration of 1 μM HusA in standard buffer at a working volume of 0.5 mL. […] The fluorescence quenching of HusA by PPIX was investigated in a similar manner with the following difference: the fluorescence intensities of ten 1 μM HusA samples were measured each with increasing amounts of PPIX after a 2-h incubation period to allow equilibrium to be reached. See Supplementary Methods for correction for inner filter effect and curve fitting. […]
(§2) Correction of inner filter effect and curve fitting in tryptophan fluorescence quenching assays The concentration of NATA was chosen such that the raw fluorescence intensity was similar to the 10 uM concentrations of HusA and mutants used. […] Fluorescence intensity was scaled with respect to the starting florescence and corrected for the inner filter effect. Fluorescence at 335 nm was used to fit binding curves. […]

HusA R139A = target: T4, HusA R139A (Porphyromonas gingivalis, UniProt Q7MSY3, R139A); assay: Tryptophan fluorescence quenching assay, HusA mutant R139A; settings: haemin
T4 sequence (Q7MSY3 24-218 R139A): T1 sequence (Q7MSY3 24-218 W130N)

HusA R121A = target: T5, HusA R121A (Porphyromonas gingivalis, UniProt Q7MSY3, R121A); assay: Tryptophan fluorescence quenching assay, HusA mutant R121A; settings: haemin
T5 sequence (Q7MSY3 24-218 R121A): T1 sequence (Q7MSY3 24-218 W130N)

HusA L107A = target: T6, HusA L107A (Porphyromonas gingivalis, UniProt Q7MSY3, L107A); assay: Tryptophan fluorescence quenching assay, HusA mutant L107A; settings: haemin
T6 sequence (Q7MSY3 24-218 L107A): T1 sequence (Q7MSY3 24-218 W130N)

HusA L123N-V124N = target: T7, HusA L123N-V124N (Porphyromonas gingivalis, UniProt Q7MSY3, L123N/V124N); assay: Tryptophan fluorescence quenching assay, HusA mutant L123N-V124N; settings: haemin, mutant L123N-V124N
T7 sequence (Q7MSY3 24-218 L123N/V124N): T1 sequence (Q7MSY3 24-218 W130N)
Description: as §1, §2

## C=CC1=C(C)c2cc3[nH]c(cc4nc(cc5[nH]c(cc1n2)c(C)c5CCC(=O)O)C(CCC(=O)O)=C4C)c(C)c3C=C.[Fe+3] [haemin]
HusA W130N
  Kd: 16 ± 1.8 µM
HusA Y133A
  Kd: 7.4 ± 0.6 µM
HusA Y164A
  Kd: 13 ± 0.7 µM
HusA R139A
  Kd: 6.3 ± 1.4 µM
HusA R121A
  Kd: 6.7 ± 1.2 µM
HusA L107A
  Kd: 5.5 ± 0.3 µM
HusA L123N-V124N
  Kd: 10.3 ± 0.7 µM
